In patent US20040242665A1, “Hair composition containing a styrylpyrazole compound, and use thereof for stimulating or inducing hair or eyelash growth and/or reducing loss thereof” (SOCIETE L'OREAL S.A., priority 2002, published 2004):

Columns and labels:
PGF synthase = target: T1, PGF synthase (Homo sapiens, UniProt P42330); assay: Test on PGF synthase (spectrophotometric, 340 nm, 9,10-phenanthrenequinone and NADPH); format: biochemical; details: pH 6.5 Tris buffer, 37° C., 20 μM 9,10-phenanthrenequinone, 100 μM β-NADPH; read-out: Inhibition of PGF synthase IC50fs
T1 construct: made in house
T1 sequence (P42330 1-323): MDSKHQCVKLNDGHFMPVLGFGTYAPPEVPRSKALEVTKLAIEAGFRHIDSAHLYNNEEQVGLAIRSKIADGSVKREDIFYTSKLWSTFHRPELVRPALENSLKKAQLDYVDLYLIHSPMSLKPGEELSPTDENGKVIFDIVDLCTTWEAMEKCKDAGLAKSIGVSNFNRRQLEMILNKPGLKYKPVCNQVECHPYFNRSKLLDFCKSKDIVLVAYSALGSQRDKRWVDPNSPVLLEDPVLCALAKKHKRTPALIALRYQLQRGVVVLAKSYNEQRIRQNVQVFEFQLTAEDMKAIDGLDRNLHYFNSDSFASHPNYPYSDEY
Experimental: The enzyme PGFS is obtained as described in document FR-A-02/05067, at a concentration of 0.5 mg/ml, as a suspension in a suitable medium, and blocked at −80° C. For the purposes of the test, this suspension is thawed and stored in ice.
In parallel, a 100 mM, pH 6.5 Tris buffer containing 20 μm of 9,10-phenanthrenequinone* (P2896, Sigma-Aldrich, L'isle D'Abeau Chesne, BP 701, 38297, Saint Quentin Fallavier) and 100 μM of β-NADPH (N1630, Sigma-Aldrich, L'isle D'Abeau Chesne, BP 701, 38297, Saint Quentin Fallavier) is prepared in a brown flask (protected from light).
*A stock solution with a titre of 1 mM is prepared in absolute ethanol and brought to 40° C.; the flask is placed in an ultrasound tank to facilitate the dissolution of the product.
(§1) 0.950 ml of this buffer (brought to 37° C. beforehand) is introduced into the cuvette of a spectrophotometer (Perkin-Elmer, Lambda 2) thermostatically maintained at 37° C., the measuring wavelength of which is set at 340 nm. 0.05 ml of enzymatic suspension at 37° C. is introduced into the cuvette concomitantly with the recording (corresponding to a reduction in the optical density at 340 nm). The maximum reaction rate is recorded.
The test values (containing compound (I)) are compared with the control value (without compound (I)); the results indicated represent the concentration at which compound (I) inhibits 50% of the enzymatic activity of PGFS, noted as IC50fs.

15-PGDH = target: T2, 15-PGDH (Homo sapiens, UniProt P15428); assay: Test on 15-PGDH (spectrophotometric, 340 nm, PGE2 and NAD); format: biochemical; details: for IC50: pH 7.4 Tris buffer, 37° C., 50 μM prostaglandin E2, read-out: Inhibition of 15-PGDH IC50dh
T2 construct: made in house
T2 sequence (P15428 1-266): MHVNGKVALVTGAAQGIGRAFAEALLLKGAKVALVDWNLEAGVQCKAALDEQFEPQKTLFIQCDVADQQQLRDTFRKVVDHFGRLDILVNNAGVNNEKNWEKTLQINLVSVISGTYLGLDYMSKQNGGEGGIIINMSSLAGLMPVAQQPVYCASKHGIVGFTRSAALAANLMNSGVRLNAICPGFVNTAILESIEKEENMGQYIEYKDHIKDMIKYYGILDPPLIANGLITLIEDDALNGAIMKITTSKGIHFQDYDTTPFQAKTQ
Experimental: The enzyme 15-PGDH is obtained as described in patent application FR 02/05067 filed in the name of L'Oreal, as a suspension in a medium adjusted to a concentration of 0.3 mg/ml and then blocked at −80° C. For the purposes of the test, this suspension is thawed and stored in ice.
In parallel, a 100 mM, pH 7.4 Tris buffer containing 0.1 mM of dithiothreitol (D5545, Sigma-Aldrich, L'isle D'Abeau Chesne, BP 701, 38297, Saint Quentin Fallavier), 1.5 mM of P-NAD (N6522, Sigma-Aldrich, L'isle D'Abeau Chesne, BP 701, 38297, Saint Quentin Fallavier), and 50 μM of prostaglandin E2 (P4172, Sigma-Aldrich, L'isle D'Abeau Chesne, BP 701, 38297, Saint Quentin Fallavier) is prepared.
as §1, with “0.965” for “0.950”, “0.035” for “0.05”, “an increase” for “a reduction”

IC50 (PGF synthase) [µM]	IC50 (15-PGDH) [µM]	Selectivity (IC50fs/IC50dh ratio) (15-PGDH; 15-PGDH relative to PGF synthase)	SMILES
> 50	3	–	N#C/C(=C\c1ccccc1Cl)c1nn(-c2ccccc2)c(N)c1C#N [Compound 7]
> 75	50	>1.5	N#C/C(=C\c1ccccc1)c1nn(-c2ccccc2)c(N)c1C#N [Compound 8]
–	5	–	COc1ccccc1/C=C(\C#N)c1nn(-c2ccccc2)c(N)c1C#N [Compound 9]

The remaining lines, values behind:

SMILES	IC50 (PGF synthase) [µM]	IC50 (15-PGDH) [µM]	Selectivity (IC50fs/IC50dh ratio) (15-PGDH; 15-PGDH relative to PGF synthase)
N#C/C(=C\c1c(Cl)cccc1Cl)c1nn(CCO)c(N)c1C#N [Compound 1a]	> 50	3	–
N#C/C(=C\c1c(Cl)cccc1Cl)c1nn(-c2ccccc2)c(N)c1C#N [Compound 6]	> 50	0.8	–
